# In PubChem BioAssay AID1745844 (Carcinogenic Potency Database (CPDB), 2022):
# Calls of active or inactive are those of the source. The rule behind the calls is not given here.
# Tested on: rodent lifetime carcinogenesis bioassay, tumor incidence TD50
# Assay: chronic cancer bioassays in animals – CPDB, compiled studies (AID 1745844)
structure (smiles),measurement,setting,value
O,TD50,"mouse, strain B6C3F1, females, in drinking water, site: any site (literature study), lesion: several types, types named in the paper, dosed 104 weeks, study length 105 weeks",806 mg/kg/day (inactive)
same,TD50,"mouse, strain B6C3F1, females, in drinking water, site: liver, lesion: hepatocellular adenoma + hepatoblastoma + hepatocellular carcinoma, dosed 104 weeks, study length 105 weeks",4410 mg/kg/day
same,TD50,"mouse, strain B6C3F1, females, in drinking water, site: lung, lesion: alveolar/bronchiolar adenoma + alveolar/bronchiolar carcinoma, dosed 104 weeks, study length 105 weeks",13400 mg/kg/day
same,carcinogen call,"mouse, strain B6C3F1, females, in feed, site: all sites, lesion: lymphoma and leukemia, combined, dosed 96 weeks, study length 104 weeks",negative (inactive)
same,carcinogen call,"mouse, strain B6C3F1, females, in feed, site: liver, lesion: hemangioma, dosed 96 weeks, study length 104 weeks",negative (inactive)
same,TD50,"mouse, strain B6C3F1, females, in feed, site: liver, lesion: hemangiosarcoma, dosed 96 weeks, study length 104 weeks",57500 mg/kg/day (inactive)
same,carcinogen call,"mouse, strain B6C3F1, females, in feed, site: liver, lesion: hepatocellular carcinoma, dosed 96 weeks, study length 104 weeks",negative (inactive)
same,TD50,"mouse, strain B6C3F1, females, in feed, site: liver, lesion: hyperplastic nodule, dosed 96 weeks, study length 104 weeks",60500 mg/kg/day (inactive)
same,TD50,"mouse, strain B6C3F1, females, in feed, site: lung, lesion: adenocarcinoma, dosed 96 weeks, study length 104 weeks",260000 mg/kg/day (inactive)
same,TD50,"mouse, strain B6C3F1, females, in feed, site: lung, lesion: adenoma, dosed 96 weeks, study length 104 weeks",100000 mg/kg/day (inactive)
same,TD50,"mouse, strain B6C3F1, males, in drinking water, site: all sites, lesion: hemangioma, dosed 103 weeks, study length 103 weeks",3470 mg/kg/day (inactive)
same,TD50,"mouse, strain B6C3F1, males, in feed, site: all sites, lesion: lymphoma and leukemia, combined, dosed 96 weeks, study length 104 weeks",10700 mg/kg/day (inactive)
same,TD50,"mouse, strain B6C3F1, males, in feed, site: liver, lesion: hemangioma, dosed 96 weeks, study length 104 weeks",24400 mg/kg/day (inactive)
same,TD50,"mouse, strain B6C3F1, males, in feed, site: liver, lesion: hemangiosarcoma, dosed 96 weeks, study length 104 weeks",46700 mg/kg/day (inactive)
same,carcinogen call,"mouse, strain B6C3F1, males, in feed, site: liver, lesion: hepatocellular carcinoma, dosed 96 weeks, study length 104 weeks",negative (inactive)
same,carcinogen call,"mouse, strain B6C3F1, males, in feed, site: liver, lesion: hyperplastic nodule, dosed 96 weeks, study length 104 weeks",negative (inactive)
same,carcinogen call,"mouse, strain B6C3F1, males, in feed, site: lung, lesion: adenocarcinoma, dosed 96 weeks, study length 104 weeks",negative (inactive)
same,TD50,"mouse, strain B6C3F1, males, in feed, site: lung, lesion: adenoma, dosed 96 weeks, study length 104 weeks",87600 mg/kg/day (inactive)
same,carcinogen call,"rat, strain Fischer 344, females, in drinking water, site: any site (literature study), lesion: several types, types named in the paper, dosed 105 weeks, study length 105 weeks",negative (inactive)
same,carcinogen call,"rat, strain Fischer 344, males, in drinking water, site: any site (literature study), lesion: several types, types named in the paper, dosed 104 weeks, study length 104 weeks",negative (inactive)
C=CC(OCC)OCC,TD50,"rat, strain Fischer 344, females, in drinking water, site: liver, lesion: hyperplastic nodule, dosed 102 weeks, study length 130 weeks",131 mg/kg/day
same,TD50,"rat, strain Fischer 344, females, in drinking water, site: liver, lesion: several types, types named in the paper, dosed 102 weeks, study length 130 weeks",123 mg/kg/day
same,TD50,"rat, strain Fischer 344, males, in drinking water, site: liver, lesion: hepatocellular carcinoma, dosed 102 weeks, study length 130 weeks",262 mg/kg/day
same,TD50,"rat, strain Fischer 344, males, in drinking water, site: liver, lesion: hyperplastic nodule, dosed 102 weeks, study length 130 weeks",266 mg/kg/day
same,TD50,"rat, strain Fischer 344, males, in drinking water, site: liver, lesion: several types, types named in the paper, dosed 102 weeks, study length 130 weeks",124 mg/kg/day
CN(CCCC(O)c1cccnc1)N=O (stereo not given),TD50,"rat, strain Fischer 344, males, in drinking water, site: adrenal medulla, lesion: one or several types, types not named, dosed 112 weeks, study length 112 weeks",1.39 mg/kg/day
same,TD50,"rat, strain Fischer 344, males, in drinking water, site: liver, lesion: hepatoma, dosed 112 weeks, study length 112 weeks",5.86 mg/kg/day
same,TD50,"rat, strain Fischer 344, males, in drinking water, site: liver, lesion: several types, types named in the paper, dosed 112 weeks, study length 112 weeks",7.25 mg/kg/day
same,TD50,"rat, strain Fischer 344, males, in drinking water, site: lung, lesion: adenocarcinoma, dosed 112 weeks, study length 112 weeks",0.409 mg/kg/day
same,TD50,"rat, strain Fischer 344, males, in drinking water, site: lung, lesion: adenoma, dosed 112 weeks, study length 112 weeks",1.38 mg/kg/day
same,TD50,"rat, strain Fischer 344, males, in drinking water, site: lung, lesion: adenosquamous carcinoma, dosed 112 weeks, study length 112 weeks",0.577 mg/kg/day
same,TD50,"rat, strain Fischer 344, males, in drinking water, site: lung, lesion: several types, types named in the paper, dosed 112 weeks, study length 112 weeks",0.103 mg/kg/day
same,TD50,"rat, strain Fischer 344, males, in drinking water, site: pancreas, exocrine, lesion: acinar-cell adenoma, dosed 112 weeks, study length 112 weeks",2.14 mg/kg/day
same,TD50,"rat, strain Fischer 344, males, in drinking water, site: pancreas, exocrine, lesion: adenocarcinoma, acinar or ductal, dosed 112 weeks, study length 112 weeks",1.09 mg/kg/day
same,TD50,"rat, strain Fischer 344, males, in drinking water, site: pancreas, exocrine, lesion: several types, types named in the paper, dosed 112 weeks, study length 112 weeks",0.668 mg/kg/day
CC1=C[C@H]2[C@@]3(O)[C@H](C)[C@@H](O)[C@]4(O)[C@H]([C@@H]3C=C(CO)C[C@]2(O)C1=O)C4(C)C,carcinogen call,"mouse, strain AKR/J, females, i.p., site: lymphoreticular system, lesion: lymphatic leukemia, dosed 104 weeks, study length 104 weeks",negative (inactive)
same,TD50,"mouse, strain AKR/J, males, i.p., site: lymphoreticular system, lesion: lymphatic leukemia, dosed 104 weeks, study length 104 weeks",8.26 mg/kg/day (inactive)
same,carcinogen call,"mouse, strain BALB/c, females, i.p., site: lymphoreticular system, lesion: one or several types, types not named, dosed 104 weeks, study length 104 weeks",negative (inactive)
same,carcinogen call,"mouse, strain BALB/c, males, i.p., site: lymphoreticular system, lesion: one or several types, types not named, dosed 104 weeks, study length 104 weeks",negative (inactive)
same,carcinogen call,"mouse, strain C3HeB, females, i.p., site: lymphoreticular system, lesion: one or several types, types not named, dosed 104 weeks, study length 104 weeks",negative (inactive)
same,carcinogen call,"mouse, strain C3HeB, males, i.p., site: lymphoreticular system, lesion: one or several types, types not named, dosed 104 weeks, study length 104 weeks",negative (inactive)
same,carcinogen call,"mouse, strain C57BL, females, i.p., site: lymphoreticular system, lesion: one or several types, types not named, dosed 104 weeks, study length 104 weeks",negative (inactive)
same,TD50,"mouse, strain SJL/J, females, i.p., site: lymphoreticular system, lesion: reticulum-cell sarcoma, type B, dosed 104 weeks, study length 104 weeks",92.6 mg/kg/day
same,TD50,"mouse, strain SWR, females, i.p., site: lymphoreticular system, lesion: lymphatic leukemia, dosed 104 weeks, study length 104 weeks",2.21 mg/kg/day
O=Nc1ccc(Nc2ccccc2)cc1,TD50,"mouse, strain B6C3F1, females, in feed, site: any site (literature study), lesion: several types, types named in the paper, dosed 53 weeks, study length 92 weeks",2170 mg/kg/day (inactive)
same,TD50,"mouse, strain B6C3F1, females, in feed, site: liver, lesion: hepatocellular adenoma + hepatocellular carcinoma + neoplastic nodule, dosed 53 weeks, study length 92 weeks",2250 mg/kg/day
same,TD50,"mouse, strain B6C3F1, females, in feed, site: lung, lesion: alveolar/bronchiolar adenoma + alveolar/bronchiolar carcinoma, dosed 53 weeks, study length 92 weeks",5410 mg/kg/day
same,TD50,"mouse, strain B6C3F1, males, in feed, site: any site (literature study), lesion: several types, types named in the paper, dosed 53 weeks, study length 92 weeks",260 mg/kg/day
same,TD50,"mouse, strain B6C3F1, males, in feed, site: liver, lesion: hepatocellular adenoma + hepatocellular carcinoma + neoplastic nodule, dosed 53 weeks, study length 92 weeks",340 mg/kg/day
same,TD50,"mouse, strain B6C3F1, males, in feed, site: liver, lesion: hepatocellular adenoma + hepatocellular carcinoma, dosed 53 weeks, study length 92 weeks",340 mg/kg/day
same,TD50,"mouse, strain B6C3F1, males, in feed, site: liver, lesion: hepatocellular carcinoma, dosed 53 weeks, study length 92 weeks",661 mg/kg/day
same,TD50,"mouse, strain B6C3F1, males, in feed, site: lung, lesion: alveolar/bronchiolar adenoma + alveolar/bronchiolar carcinoma, dosed 53 weeks, study length 92 weeks",3520 mg/kg/day
same,carcinogen call,"rat, strain Fischer 344, females, in feed, site: any site (literature study), lesion: several types, types named in the paper, dosed 78 weeks, study length 105 weeks",negative (inactive)
same,TD50,"rat, strain Fischer 344, females, in feed, site: liver, lesion: hepatocellular adenoma + hepatocellular carcinoma + neoplastic nodule, dosed 78 weeks, study length 105 weeks",1210 mg/kg/day
same,TD50,"rat, strain Fischer 344, males, in feed, site: liver, lesion: hepatocellular adenoma + hepatocellular carcinoma + neoplastic nodule, dosed 78 weeks, study length 105 weeks",201 mg/kg/day
same,TD50,"rat, strain Fischer 344, males, in feed, site: liver, lesion: hepatocellular carcinoma + neoplastic nodule, dosed 78 weeks, study length 105 weeks",201 mg/kg/day
N/C(=N\O)c1ccc([N+](=O)[O-])o1,TD50,"rat, strain Sprague-Dawley, females, in feed, site: any site (literature study), lesion: several types, types named in the paper, dosed 46 weeks, study length 66 weeks",42 mg/kg/day (inactive)
C[C@]12C=CC(=O)C=C1CC[C@@H]1[C@@H]2[C@@H](O)C[C@@]2(C)[C@H]1CC[C@]2(O)C(=O)COC(=O)CCCc1ccc(N(CCCl)CCCl)cc1,TD50,"rat, strain Sprague-Dawley, females, by gavage, site: any site (literature study), lesion: benign tumor, dosed 78 weeks, study length 104 weeks",14 mg/kg/day (inactive)
same,TD50,"rat, strain Sprague-Dawley, females, by gavage, site: any site (literature study), lesion: malignant tumor, dosed 78 weeks, study length 104 weeks",21.6 mg/kg/day (inactive)
same,TD50,"rat, strain Sprague-Dawley, females, by gavage, site: external auditory canal, lesion: squamous-cell carcinoma, dosed 78 weeks, study length 104 weeks",19.2 mg/kg/day
C#CC(OC(N)=O)(c1ccccc1)c1ccc(Cl)cc1 (stereo not given),TD50,"rat, strain Harlan, males, in feed, site: any site (literature study), lesion: several types, types named in the paper, dosed 72 weeks, study length 94 weeks",3.88 mg/kg/day
same,TD50,"rat, strain Harlan, males, in feed, site: brain, lesion: several types, types named in the paper, dosed 72 weeks, study length 94 weeks",462 mg/kg/day
same,TD50,"rat, strain Harlan, males, in feed, site: duodenum, lesion: adenocarcinoma, dosed 72 weeks, study length 94 weeks",24.9 mg/kg/day
same,TD50,"rat, strain Harlan, males, in feed, site: jejunum, lesion: adenocarcinoma, dosed 72 weeks, study length 94 weeks",8.78 mg/kg/day
same,TD50,"rat, strain Harlan, males, in feed, site: liver, lesion: several types, types named in the paper, dosed 72 weeks, study length 94 weeks",58.5 mg/kg/day
